One data set concerns HBV. The data set is described as follows: HBV in vitro test: quantitative qPCR of HBV DNA in HepG2.2.15 cells. The class given is cell-based. Here is the method:
The HBV DNA content in HepG2.2.15 cells was detected by Real-time quantitative qPCR, and EC50 value of compounds was used as an indicator to evaluate inhibitory effect of compounds on HBV.
2.1 Cell Line: HepG2.2.15 Cells
3.1 HepG2.2.15 cells (4×10^4 cells/well) were bedded to a 96-well plate and cultured overnight at 37° C., 5% CO2.
3.2 On the day 2, the compound was diluted to a total of 8 concentrations, with a 3-fold gradient dilution. Different concentrations of compounds were added to the culture wells in duplicate. The final concentration of DMSO in the culture medium was 1%. 1 μM GLS4 was used as a 100% inhibition control; 1% DMSO was used as a 0% inhibition control.
3.3 On the day 5, the culture medium was replaced with fresh culture medium containing the compound.
3.4 On the day 8, the culture medium in the culture wells was collected, and DNA was extracted with the high-throughput DNA purification kit (Qiagen-51162). Refer product manual for specific steps.
3.6 15 μL of reaction mixture was added to each well of a 96-well PCR plate, and then 10 μL of sample DNA or HBV DNA standard was added to each well.
3.7 The reaction settings for PCR are: heating at 95° C. for 10 minutes; then denaturation at 95° C. for 15 seconds, and extension at 60° C. for 1 minute, a total of 40 cycles. […]

For the next data set, the target named is T1, CYP1A2 (Homo sapiens, UniProt P05177).
T1 construct: from tissue; host or cells: human liver microsomes
T1 sequence (P05177 1-516): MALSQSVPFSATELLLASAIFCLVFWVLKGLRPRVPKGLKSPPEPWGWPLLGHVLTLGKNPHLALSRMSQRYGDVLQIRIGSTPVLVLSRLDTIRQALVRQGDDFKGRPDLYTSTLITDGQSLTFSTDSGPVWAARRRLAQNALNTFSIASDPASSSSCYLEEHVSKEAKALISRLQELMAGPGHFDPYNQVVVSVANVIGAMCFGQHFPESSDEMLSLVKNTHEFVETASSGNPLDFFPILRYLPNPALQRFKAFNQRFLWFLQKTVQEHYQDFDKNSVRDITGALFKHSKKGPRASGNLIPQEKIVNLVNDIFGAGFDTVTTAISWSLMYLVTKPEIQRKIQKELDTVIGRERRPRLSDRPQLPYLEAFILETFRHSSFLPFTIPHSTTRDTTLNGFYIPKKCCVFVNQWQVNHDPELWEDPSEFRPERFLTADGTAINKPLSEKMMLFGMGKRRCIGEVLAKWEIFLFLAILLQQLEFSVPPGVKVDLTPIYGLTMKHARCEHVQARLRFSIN
As to the kind of experiment: Inhibition of human liver microsomal cytochrome P450 isoenzymes. Conditions: human liver microsomes. The class given is in vitro ADME. As to the method:
(§1) Objectives of experiment: To determine the inhibitory effect of the test compound on the activity of human liver microsomal cytochrome P450 isoenzymes (CYP1A2, CYP2C9, CYP2C19, CYP2D6 and CYP3A4). Experimental operation: First, the test compound (10 mM) was diluted in a gradient to prepare the working solutions (100× final concentration). The concentrations of the working solutions were 5, 1.5, 0.5, 0.15, 0.05, 0.015 and 0.005 mM. Meanwhile, the working solutions of mixture (5 in 1) of positive inhibitors of each P450 isoenzyme (CYP1A2, CYP2C9, CYP2C19, CYP2D6 and CYP3A4) and the specific substrate of the isoenzymes were also prepared; the human liver microsomes frozen in the refrigerator at −80° C. were unfrozen on ice. After the human liver microsomes were completely dissolved, they were diluted with PB to prepare a certain concentration (0.253 mg/mL) of working solution; 20 uL of the substrate mixture was added into the reaction plate (20 μl PB was added into the Blank well) as well as 158 μL of human liver microsome working solution, then the reaction plate was placed on ice and set aside; at this time, 2 μL of each concentration of test compound (N=1) and specific inhibitor (N=2) were added to the corresponding well, the group without inhibitor (test compound or positive inhibitor) was added with the corresponding organic solvent as a control sample (the test compound control sample was 1:1 DMSO:MeOH, and the positive control sample was 1:9 DMSO:MeOH); after pre-incubating in a 37° C. water bath for 10 min, the reaction plate was added with 20 μL of coenzyme factor (NADPH) solution and water bathed at 37° C. for 10 min; 400 μL of cold acetonitrile solution (internal standard was 200 ng/mL Tolbutamide and Labetalol) was added to terminate the reaction; the reaction plate was then placed on a shaker and shaken for 10 min, followed by centrifuging at 4,000 rpm for 20 min; 200 μL of supernatant was added to 100 μL of water for sample dilution; finally, the plate was sealed, shaken well, and subjected to LC/MS/MS detection.
For orientation: Microsomes from liver hold many membrane-bound enzymes, among them those of drug oxidation.

For a further data set, the target named is T2, CYP2D6 (Homo sapiens, UniProt P10635).
T2 construct: from tissue; host or cells: human liver microsomes
T2 sequence (P10635 whole entry): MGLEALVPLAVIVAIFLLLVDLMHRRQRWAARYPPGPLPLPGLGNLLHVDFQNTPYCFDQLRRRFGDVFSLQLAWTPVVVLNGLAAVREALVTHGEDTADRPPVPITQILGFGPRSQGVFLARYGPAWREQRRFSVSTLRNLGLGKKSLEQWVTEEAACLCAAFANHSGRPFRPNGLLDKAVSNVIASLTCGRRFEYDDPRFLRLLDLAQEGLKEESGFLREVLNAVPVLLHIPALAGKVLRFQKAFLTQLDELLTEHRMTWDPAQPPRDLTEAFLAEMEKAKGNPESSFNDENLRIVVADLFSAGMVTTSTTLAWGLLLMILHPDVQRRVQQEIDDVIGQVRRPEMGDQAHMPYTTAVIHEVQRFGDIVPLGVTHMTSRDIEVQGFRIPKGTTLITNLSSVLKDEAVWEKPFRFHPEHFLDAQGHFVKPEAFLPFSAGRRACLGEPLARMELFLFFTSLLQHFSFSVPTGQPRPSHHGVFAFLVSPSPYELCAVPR
Described as above. The conditions noted are these: human liver microsomes. The class given is in vitro ADME. Here is the method:
as §1

For another data set, the target named is T3, CYP2C19 (Homo sapiens, UniProt P33261).
T3 construct: from tissue; host or cells: human liver microsomes
T3 sequence (P33261 whole entry): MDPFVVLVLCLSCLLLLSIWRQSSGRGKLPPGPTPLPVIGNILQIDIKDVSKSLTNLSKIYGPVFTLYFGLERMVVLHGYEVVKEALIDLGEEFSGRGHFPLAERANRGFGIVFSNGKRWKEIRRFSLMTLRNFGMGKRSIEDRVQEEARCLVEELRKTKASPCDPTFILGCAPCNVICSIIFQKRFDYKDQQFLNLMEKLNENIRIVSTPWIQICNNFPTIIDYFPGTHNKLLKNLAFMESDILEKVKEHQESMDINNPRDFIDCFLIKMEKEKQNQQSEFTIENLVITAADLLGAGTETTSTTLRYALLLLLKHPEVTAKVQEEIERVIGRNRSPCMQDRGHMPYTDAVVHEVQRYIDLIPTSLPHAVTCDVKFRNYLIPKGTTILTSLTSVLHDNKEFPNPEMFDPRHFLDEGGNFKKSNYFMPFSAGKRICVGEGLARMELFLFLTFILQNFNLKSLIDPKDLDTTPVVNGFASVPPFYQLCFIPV
Described as above. The class given is in vitro ADME. The conditions noted are these: human liver microsomes. Here is the method:
as §1

Another data set concerns the target T4, CYP2C9 (Homo sapiens, UniProt P11712).
T4 construct: from tissue; host or cells: human liver microsomes
The data set is described as above. The class given is in vitro ADME. The conditions noted are these: human liver microsomes. As to the method:
as §1

Another data set concerns the target T5, CYP3A4 (Homo sapiens, UniProt P08684).
T5 construct: from tissue; host or cells: human liver microsomes
The description is as above. The data set is classed as in vitro ADME. Conditions: human liver microsomes. As to the method:
as §1

Consider one molecule from patent US11952388B2, “Crystal form of tri-cycle compound and application thereof” (FUJIAN AKEYLINK BIOTECHNOLOGY CO., LTD., priority 2018, dated 2024).

A value given as a limit tells only on which side of the number the result lay.

T4 sequence (P11712 whole entry): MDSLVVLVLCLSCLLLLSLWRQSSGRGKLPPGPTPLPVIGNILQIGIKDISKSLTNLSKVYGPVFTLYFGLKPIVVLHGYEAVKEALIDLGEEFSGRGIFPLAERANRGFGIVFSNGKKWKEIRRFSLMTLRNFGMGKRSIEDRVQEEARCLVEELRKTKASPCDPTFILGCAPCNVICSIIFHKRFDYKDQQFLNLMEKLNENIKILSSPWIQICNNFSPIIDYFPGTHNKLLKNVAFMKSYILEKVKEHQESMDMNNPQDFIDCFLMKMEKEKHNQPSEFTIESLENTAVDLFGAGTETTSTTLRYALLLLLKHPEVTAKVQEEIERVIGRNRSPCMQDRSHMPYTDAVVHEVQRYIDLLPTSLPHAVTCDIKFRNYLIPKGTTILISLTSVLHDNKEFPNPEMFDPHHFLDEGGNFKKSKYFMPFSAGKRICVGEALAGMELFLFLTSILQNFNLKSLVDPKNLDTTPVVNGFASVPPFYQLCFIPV
T5 sequence (P08684 whole entry): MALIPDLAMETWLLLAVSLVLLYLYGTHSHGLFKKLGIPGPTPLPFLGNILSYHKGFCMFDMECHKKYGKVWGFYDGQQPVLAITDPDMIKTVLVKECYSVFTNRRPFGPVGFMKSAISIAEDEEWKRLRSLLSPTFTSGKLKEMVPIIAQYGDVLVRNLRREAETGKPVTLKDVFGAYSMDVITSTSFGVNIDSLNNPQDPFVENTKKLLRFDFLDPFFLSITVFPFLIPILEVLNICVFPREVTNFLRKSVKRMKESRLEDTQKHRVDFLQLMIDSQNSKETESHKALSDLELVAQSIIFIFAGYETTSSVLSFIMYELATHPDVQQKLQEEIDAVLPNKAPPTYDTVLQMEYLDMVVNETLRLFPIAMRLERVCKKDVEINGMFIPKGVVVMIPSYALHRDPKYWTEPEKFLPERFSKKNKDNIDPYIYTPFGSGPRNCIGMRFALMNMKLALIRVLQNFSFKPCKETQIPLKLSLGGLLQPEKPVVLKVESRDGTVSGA

Consider `Cc1cc2n(c1)S(=O)(=O)c1ccc(C(=O)NCC[C@H]3COCCO3)cc1NC2=O` [compound represented by formula (I)], for which the “inhibitory effect on HBV (conclusion in words)” value in the data set with HBV is on record as “significant inhibitory effect”. Also, the EC50 with HBV (Hepatitis B virus, HBV DNA by qPCR, read-out: 50% inhibitory concentration (EC50) value of HBV) was found to be 8.16 nM. Besides, on CYP1A2, the half-maximal inhibitory concentration (IC50) was over 50 µM and the “inhibitory effect on CYP1A2 (conclusion in words)” value is reported as “no evident inhibitory effect”. Besides, on CYP2D6, the IC50 is over 50 µM and the “inhibitory effect on CYP2D6 (conclusion in words)” value is listed as “no evident inhibitory effect”. In addition, on CYP2C19, the IC50 is over 50 µM and the “inhibitory effect on CYP2C19 (conclusion in words)” value was “no evident inhibitory effect”. At CYP2C9, the IC50 was over 50 µM and the “inhibitory effect on CYP2C9 (conclusion in words)” value is “no evident inhibitory effect”. On CYP3A4, the IC50 is over 50 µM and the “inhibitory effect on CYP3A4 (conclusion in words)” value was “no evident inhibitory effect”.

Broadly, the IC50 is the concentration at which inhibition is half-maximal. Read a high IC50 as weaker potency.
